Measured values: patent US20130267594A1, “PROLYL HYDROXYLASE INHIBITORS AS RADIATION MITIGATORS AND RADIATION PROTECTORS” (priority 2010, published 2013)

Tests used:
[1] = tested on: C57BL/6J and Balb/c mice after TBI; assay: Murine total body irradiation (TBI) model, 30 day survival; assay type: in vivo, mouse; conditions: 8 Gy TBI, DMOG 100 mg/kg ip 4 hrs before, 12 hrs and 36 hrs after TBI, 30 days
Method: Mice (10 per group) were irradiated (8 Gy TBI) and survival monitored over 30 days. DMOG (100 mg/kg) or saline was administered ip 4 hrs before TBI, and 12 hrs and 36 hrs after TBI.
Mice: This study was carried out in strict accordance with the recommendations in the Guide for the Care and Use of Laboratory Animals of the National Institutes of Health. The protocol was reviewed and approved by the Dana-Farber Cancer Institute's Animal Care and Use Committee (Protocol number 06-029). All efforts were made to minimize suffering. Male Balb/c mice were purchased from Taconic (NY, USA) and C57BL/6J mice were purchased from The Jackson Laboratory (ME, USA). For total body irradiation (TBI), mice were irradiated at the dose rate of 110 cGy/min using a ^137Cs source (Gammacell® 40Exactor, Best Theratronics, Ottawa, Canada). DMOG (dissolved in saline) or saline was administered IP before and after TBI. The mice were given normal water that had undergone reverse osmosis and powdered food (Purina Pico Lab Chow) after TBI. The animals were closely inspected after TBI for ill-health and the moribund animals were sacrificed according to the guidelines in our approved ACUC protocol. The Kaplan-Meier survival curves were plotted for saline-treated and DMOG-treated cohorts. The statistical analysis of the Kaplan-Meier survival curves was performed with Graph Pad Prism Version 5 using Mantel Log-rank test.

H3K9me3 = H3K9me3 immunofluorescent staining in MEFs (FIG. 10A); assay type: cell-based, mouse; conditions: DMOG 1 mM 24 hr
Method: In FIG. 10A MEFs were incubated in either solvent (Control: DMSO) or DMOG (1 mM) for 24 hr. H3K9me3 levels were detected by immunofluorescent staining with antibody to H3K9me3 and co-stained with DAPI to locate nuclear DNA. In FIG. 10B HEK293T cells were transiently transfected with vector or KDM4A and allowed to recover for 30 hrs. Cells were either untreated or incubated with DMOG (1 mM) for 24 hrs. H3K9me3 levels were detected by immunofluorescent staining with antibody to H3K9me3. In FIG. 10C MCF-7 cells were incubated in increasing concentrations of DMOG or CoCl2 (200 μM) for 24 hrs. […] In FIG. 10D MCF-7 cells were incubated in DMOG (1 mM) or CoCl2 (200 μM) for the indicated time. […] In FIG. 10E MCF-7 cells expressing either a non-specific shRNA (shRNA^Con) or shRNA targeting Hif1α (shRNA^Hif1α) were incubated with DMOG or CoCl2 (200 μM) for 24 hrs.
Immunofluorescence: Cells (on cover slides) were fixed in phosphate-buffered saline (PBS) containing 2% paraformaldehyde. Cells were permeabilized in 0.2% Triton X-100 in PBS for 5mins, and then blocked in fetal bovine serum for 20 min, Primary antibodies were prepared in 10% fetal bovine serum supplemented with 0.2% saponin. After a 1 h incubation with primary antibody, cells were washed three times with 0.2% Tween-20 and incubated for 1 h in secondary antibody (conjugated to either Texas Red or FITC; Santa Cruz Biotechnology, CA). […]

KDM4A = target: T1, KDM4A (Homo sapiens, UniProt O75164); assay: H3K9me3 immunofluorescent staining in HEK293T cells transiently expressing KDM4A (FIG. 10B); assay type: cell-based; conditions: DMOG 1 mM 24 hrs
T1 construct: expressed in transfected cells; host or cells: HEK293T cells
T1 sequence (O75164 1-1064): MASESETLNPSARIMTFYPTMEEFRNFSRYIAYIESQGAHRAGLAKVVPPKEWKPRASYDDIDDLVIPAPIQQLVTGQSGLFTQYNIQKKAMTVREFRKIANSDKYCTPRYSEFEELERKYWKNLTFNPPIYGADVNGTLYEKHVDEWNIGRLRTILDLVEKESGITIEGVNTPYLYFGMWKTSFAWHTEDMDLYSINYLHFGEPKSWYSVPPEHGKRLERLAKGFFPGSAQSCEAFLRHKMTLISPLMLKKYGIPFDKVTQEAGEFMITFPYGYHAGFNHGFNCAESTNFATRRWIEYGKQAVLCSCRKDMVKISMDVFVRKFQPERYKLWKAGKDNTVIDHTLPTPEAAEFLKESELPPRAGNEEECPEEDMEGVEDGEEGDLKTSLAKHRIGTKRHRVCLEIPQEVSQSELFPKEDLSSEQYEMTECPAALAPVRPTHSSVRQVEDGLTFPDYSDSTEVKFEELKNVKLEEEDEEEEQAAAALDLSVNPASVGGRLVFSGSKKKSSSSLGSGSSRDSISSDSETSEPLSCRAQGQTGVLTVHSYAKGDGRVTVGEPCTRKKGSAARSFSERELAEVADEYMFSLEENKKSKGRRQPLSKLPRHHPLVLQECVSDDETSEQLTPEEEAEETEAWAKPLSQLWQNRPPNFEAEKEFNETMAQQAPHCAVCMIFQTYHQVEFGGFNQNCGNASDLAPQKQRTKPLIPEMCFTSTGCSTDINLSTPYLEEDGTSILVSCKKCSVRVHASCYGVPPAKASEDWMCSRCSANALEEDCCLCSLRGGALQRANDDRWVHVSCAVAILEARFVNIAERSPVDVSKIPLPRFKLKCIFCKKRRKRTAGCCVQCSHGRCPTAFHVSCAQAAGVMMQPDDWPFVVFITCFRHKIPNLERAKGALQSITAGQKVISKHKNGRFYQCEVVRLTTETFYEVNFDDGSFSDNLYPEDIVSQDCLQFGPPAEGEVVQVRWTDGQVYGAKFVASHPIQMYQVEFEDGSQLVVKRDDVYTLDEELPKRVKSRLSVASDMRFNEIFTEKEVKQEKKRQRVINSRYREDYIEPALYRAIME

SMILES: COC(=O)CNC(=O)C(=O)OC [DMOG, dimethyloxalylglycine]
- survival after TBI ([1]; Balb/c mice, FIG. 6B): significantly improved the survival
- survival after TBI ([1]; C57BL/6J mice, FIG. 6A): significantly improved the survival
- H3K9me3 in cells (H3K9me3): rapidly increased H3K9me3
- H3K9me3 levels in cells expressing KDM4A (KDM4A): restored H3K9me3 levels to near normal
